According to patent US9969738B2, “N-acyl-(3-substituted)-5,6,7,8-tetrahydro-[1,2,4]triazolo[4,3-a]pyrazines as selective NK-3 receptor antagonists, pharmaceutical composition, methods for use in NK-3 receptor-mediated disorders” (EUROSCREEN SA, priority 2013, dated 2018):

What was measured:
[1] = biological target: T1, human NK-3 receptor (Homo sapiens (Human), UniProt P29371); assay: Aequorin functional assay with human NK-3 receptor (antagonist testing); assay type: cell-based; conditions: CHO cells expressing human NK-3 receptor and apoaequorin; agonist NKA at EC80 (3 nM); read-out: hNK-3 - AEQ (antagonist IC50)
Protocol: Aequorin Assay with Human NK-3 Receptor
Changes in intracellular calcium levels are a recognized indicator of G protein-coupled receptor activity. The efficacy of compounds of the invention to inhibit NKA-mediated NK-3 receptor activation was assessed by an in vitro Aequorin functional assay. Chinese Hamster Ovary recombinant cells expressing the human NK-3 receptor and a construct that encodes the photoproteinapoaequorin were used for this assay. In the presence of the cofactor coelenterazine, apoaequorin emits a measurable luminescence that is proportional to the amount of intracellular (cytoplasmic) free calcium.
The antagonist activity of compounds of the invention is measured following pre-incubation (3 minutes) of the compound (at various concentrations) with the cells, followed by addition of the reference agonist (NKA) at a final concentration equivalent to the EC80 (3 nM) and recording of emitted light (FDSS 6000 Hamamatsu) over the subsequent 90-second period. The intensity of the emitted light is integrated using the reader software. Compound antagonist activity is measured based on the concentration-dependent inhibition of the luminescence response to the addition of Neurokinin A.
The IC50 values shown in table 2 indicate that compounds of the invention are potent NK-3 antagonist compounds.

[2] = biological target: T1, human NK-3 receptor; assay: 3H-SB222200 binding competition assay with human NK-3 receptor; conditions: CHO cell membranes, 5 nM 3H-SB222200; Ki by Cheng-Prusoff; read-out: hNK-3 (Ki)
Protocol: The affinity of compounds of the invention for the human NK-3 receptor was determined by measuring the ability of compounds of the invention to competitively and reversibly displace a well-characterized NK-3 radioligand in a concentration-dependent manner.
^3H-SB222200 Binding Competition Assay with Human NK-3 Receptor
The ability of compounds of the invention to inhibit the binding of the NK-3 receptor selective antagonist ^3H-SB222200 was assessed by an in vitro radioligand binding assay. Membranes were prepared from Chinese hamster ovary recombinant cells stably expressing the human NK-3 receptor. The membranes were incubated with 5 nM ^3H-SB222200 (ARC) in a HEPES 25 mM/NaCl 0.1M/CaCl2 1 mM/MgCl2 5 mM/BSA 0.5%/Saponin 10 μg/ml buffer at pH 7.4 and various concentrations of compounds of the invention. The amount of ^3H-SB222200 bound to the receptor was determined after filtration by the quantification of membrane associated radioactivity using the TopCount-NXT reader (Packard).

[3] = biological target: human NK-1 receptor (Homo sapiens (Human), UniProt P25103); assay: Selectivity assay: [3H] substance P binding to human NK-1 receptor; conditions: CHO cell membranes, 2 nM [3H] substance P; read-out: hNK-1 (Ki)
Protocol: (§1) Selectivity of the compounds of the invention was determined over the other human NK receptors, namely NK-1 and NK-2 receptors.
The affinity of compounds of the invention for the NK-1 receptor was evaluated in CHO recombinant cells which express the human NK-1 receptor. Membrane suspensions were prepared from these cells. The following radioligand: [^3H] substance P (PerkinElmer Cat#NET111520) was used in this assay. Binding assays were performed in a 50 mM Tris/5 mM MnCl2/150 mM NaCl/0.1% BSA at pH 7.4. Binding assays consisted of 25 μl of membrane suspension (approximately 5 μg of protein/well in a 96 well plate), 50 μl of compound or reference ligand (Substance P) at increasing concentrations (diluted in assay buffer) and 2 nM [^3H] substance P. The plate was incubated 60 min at 25° C. in a water bath and then filtered over GF/C filters (Perkin Elmer, 6005174, presoaked in 0.5% PEI for 2 h at room temperature) with a Filtration unit (Perkin Elmer). The radioactivity retained on the filters was measured by using the TopCount-NXT reader (Packard).

[4] = biological target: human NK-2 receptor (Homo sapiens (Human), UniProt P21452); assay: Selectivity assay: [125I]-Neurokinin A binding to human NK-2 receptor; conditions: CHO cell membranes, 0.1 nM [125I]-Neurokinin A; read-out: hNK-2 (Ki)
Protocol: as §1
The affinity of compounds of the invention for the NK-2 receptor was evaluated in CHO recombinant cells which express the human NK-2 receptor. Membrane suspensions were prepared from these cells. The following radioligand [^125I]-Neurokinin A (PerkinElmer Cat#NEX252) was used in this assay. Binding assays were performed in a 25 mM HEPES/1 mM CaCl2/5 mM MgCl2/0.5% BSA/10 μg/ml saponin, at pH 7.4. Binding assays consisted of 25 μl of membrane suspension (approximately 3.75 μg of protein/well in a 96 well plate), 50 μl of compound or reference ligand (Neurokinin A) at increasing concentrations (diluted in assay buffer) and 0.1 nM [^125I]-Neurokinin A. The plate was incubated 60 min at 25° C. in a water bath and then filtered over GF/C filters (Perkin Elmer, 6005174, presoaked in assay buffer without saponine for 2 h at room temperature) with a Filtration unit (Perkin Elmer). The radioactivity retained on the filters was measured by using the TopCount-NXT reader (Packard).

[5] = biological target: hERG channel (Homo sapiens (Human), UniProt Q12809); assay: hERG inhibition assay (manual patch-clamp, HEK 293 cells); assay type: cell-based; conditions: 5 minutes of exposure, read-out: CardioSafety (hERG IC50)
Protocol: IKr current inhibition accounts for the vast majority of known cases of drug-induced QT-prolongation. […] Whole-cell currents (acquisition by manual patch-clamp) elicited during a voltage pulse were recorded in baseline conditions and following application of tested compounds (5 minutes of exposure). The concentrations of tested compounds (0.3 μM; 3 μM; 10 μM; 30 μM) reflect a range believed to exceed the concentrations at expected efficacy doses in preclinical models. […] The current density recorded were normalized against the baseline conditions and corrected for solvent effect and time-dependent current run-down using experimental design in test compound free conditions.

[6] = Determination of plasma protein binding (rapid equilibrium dialysis); assay type: in vitro ADME; conditions: bound drug fraction to plasma protein; equilibrium dialysis 4 hours at 37° C.
Description: Determination of Plasma Protein Binding
The pharmacokinetic and pharmacodynamic properties of chemicals/drugs are largely a function of the reversible binding of chemicals to plasma or serum proteins. […] Consequently, the extent of the plasma protein binding (PPB) of a compound influences its action as well as its distribution and elimination.
The determination of plasma protein binding (PPB) of a compound is enabled by equilibrium dialysis, an accepted and standard method for reliable estimation of the non-bound drug fraction in plasma. RED (Rapid Equilibrium Dialysis) device insert is made of two side-by-side chambers separated by an O-ring-sealed vertical cylinder of dialysis membrane (MWCO ˜8,000). […] After 4 hours incubation at 37° C. under shaking, an aliquot is removed from each chamber and analyzed by a LC-MS/MS procedure enables the determination of both free and bound drug.
The “free fraction” may be calculated as 100%−% rPPB (i.e. the complementary percentage of that disclosed in Table 4, corresponding to the drug concentration that is unbound and therefore available to engage biological target and elicit pharmacological activity).

[7] = system: circulating LH levels; assay: Castrated male rat model, circulating levels of luteinizing hormone (LH), oral dosing; assay type: in vivo; conditions: castrated male SD rats, single oral dose less than or equal to 30 mg/kg, p<0.05
Protocol: In Vivo Assay to Assess Compound Activity in Rat (Oral Dosing) The effect of compounds of the invention to inhibit luteinizing hormone (LH) secretion is determined by the following biological studies. Castrated Male Rat Model to Assess the Effect of Compound of Invention on Circulating Levels of Luteinizing Hormone (LH) In humans and rodents, castration is well-precedented to permit heightened, persistent GnRH signaling and consequent elevation of circulating LH. Thus, a castrated rat model is used to provide a broad index for measurement of LH inhibition as a marker of test compound inhibition of the GnRH signaling pathway. Castrated adult male Sprague-Dawley (SD) rats (150-175 g,) were purchased from Janvier (St Berthevin, France). All animals were housed 2 per cage in a temperature-controlled room (22±2° C.) and 50±5% relative humidity with a 12 hour/12 hour light/dark cycles (lights off at 6 h00 pm). The animals were allowed 3 weeks of postoperative recovery prior to study. Animals were handled on a daily basis. Standard diet and tap water were provided ad libitum. Animal cage litters were changed once a week. On the study day, animals were acclimated to the procedure room for a period of one hour prior to the initiation of the experiment. […] Serum LH levels were determined using radioimmunoas say kit from RIAZEN—Rat LH, Zentech (Liège, Belgium). […]

Sequence of human NK-2 receptor (P21452 whole entry): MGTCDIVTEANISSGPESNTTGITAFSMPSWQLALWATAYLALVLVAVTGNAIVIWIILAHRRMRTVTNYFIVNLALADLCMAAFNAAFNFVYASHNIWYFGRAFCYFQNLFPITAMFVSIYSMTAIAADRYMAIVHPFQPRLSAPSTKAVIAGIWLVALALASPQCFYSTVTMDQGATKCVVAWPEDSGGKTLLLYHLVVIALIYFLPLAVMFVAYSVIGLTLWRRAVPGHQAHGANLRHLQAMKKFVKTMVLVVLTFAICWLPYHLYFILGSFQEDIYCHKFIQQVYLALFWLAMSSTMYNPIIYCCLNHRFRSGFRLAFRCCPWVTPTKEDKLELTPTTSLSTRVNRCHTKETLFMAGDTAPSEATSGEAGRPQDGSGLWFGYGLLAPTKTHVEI
T1 sequence (P29371 whole entry): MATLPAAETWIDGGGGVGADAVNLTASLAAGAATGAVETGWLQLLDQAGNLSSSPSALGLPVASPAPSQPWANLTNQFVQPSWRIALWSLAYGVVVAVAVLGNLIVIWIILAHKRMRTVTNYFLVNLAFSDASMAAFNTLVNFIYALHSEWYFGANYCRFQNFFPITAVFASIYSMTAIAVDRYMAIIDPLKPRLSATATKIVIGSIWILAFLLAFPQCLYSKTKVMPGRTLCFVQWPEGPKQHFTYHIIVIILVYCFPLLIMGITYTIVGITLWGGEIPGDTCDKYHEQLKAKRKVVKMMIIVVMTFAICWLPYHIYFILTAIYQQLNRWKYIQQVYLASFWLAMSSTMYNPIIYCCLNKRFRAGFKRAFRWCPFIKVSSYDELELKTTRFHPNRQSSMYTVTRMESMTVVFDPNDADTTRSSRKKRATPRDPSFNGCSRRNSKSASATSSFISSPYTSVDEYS
Sequence of human NK-1 receptor (P25103 whole entry): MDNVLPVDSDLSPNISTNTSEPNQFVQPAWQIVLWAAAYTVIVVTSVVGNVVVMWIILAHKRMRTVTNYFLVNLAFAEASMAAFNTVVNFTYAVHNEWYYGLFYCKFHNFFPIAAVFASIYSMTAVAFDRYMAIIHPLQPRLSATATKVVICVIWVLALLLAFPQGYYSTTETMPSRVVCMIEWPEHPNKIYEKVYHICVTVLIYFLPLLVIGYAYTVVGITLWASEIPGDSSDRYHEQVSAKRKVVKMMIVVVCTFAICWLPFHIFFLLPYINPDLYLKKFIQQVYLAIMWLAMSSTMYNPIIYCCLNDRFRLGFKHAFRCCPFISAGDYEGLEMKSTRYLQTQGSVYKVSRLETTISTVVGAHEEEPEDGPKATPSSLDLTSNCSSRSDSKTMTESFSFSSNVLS
Sequence of hERG channel (Q12809 whole entry): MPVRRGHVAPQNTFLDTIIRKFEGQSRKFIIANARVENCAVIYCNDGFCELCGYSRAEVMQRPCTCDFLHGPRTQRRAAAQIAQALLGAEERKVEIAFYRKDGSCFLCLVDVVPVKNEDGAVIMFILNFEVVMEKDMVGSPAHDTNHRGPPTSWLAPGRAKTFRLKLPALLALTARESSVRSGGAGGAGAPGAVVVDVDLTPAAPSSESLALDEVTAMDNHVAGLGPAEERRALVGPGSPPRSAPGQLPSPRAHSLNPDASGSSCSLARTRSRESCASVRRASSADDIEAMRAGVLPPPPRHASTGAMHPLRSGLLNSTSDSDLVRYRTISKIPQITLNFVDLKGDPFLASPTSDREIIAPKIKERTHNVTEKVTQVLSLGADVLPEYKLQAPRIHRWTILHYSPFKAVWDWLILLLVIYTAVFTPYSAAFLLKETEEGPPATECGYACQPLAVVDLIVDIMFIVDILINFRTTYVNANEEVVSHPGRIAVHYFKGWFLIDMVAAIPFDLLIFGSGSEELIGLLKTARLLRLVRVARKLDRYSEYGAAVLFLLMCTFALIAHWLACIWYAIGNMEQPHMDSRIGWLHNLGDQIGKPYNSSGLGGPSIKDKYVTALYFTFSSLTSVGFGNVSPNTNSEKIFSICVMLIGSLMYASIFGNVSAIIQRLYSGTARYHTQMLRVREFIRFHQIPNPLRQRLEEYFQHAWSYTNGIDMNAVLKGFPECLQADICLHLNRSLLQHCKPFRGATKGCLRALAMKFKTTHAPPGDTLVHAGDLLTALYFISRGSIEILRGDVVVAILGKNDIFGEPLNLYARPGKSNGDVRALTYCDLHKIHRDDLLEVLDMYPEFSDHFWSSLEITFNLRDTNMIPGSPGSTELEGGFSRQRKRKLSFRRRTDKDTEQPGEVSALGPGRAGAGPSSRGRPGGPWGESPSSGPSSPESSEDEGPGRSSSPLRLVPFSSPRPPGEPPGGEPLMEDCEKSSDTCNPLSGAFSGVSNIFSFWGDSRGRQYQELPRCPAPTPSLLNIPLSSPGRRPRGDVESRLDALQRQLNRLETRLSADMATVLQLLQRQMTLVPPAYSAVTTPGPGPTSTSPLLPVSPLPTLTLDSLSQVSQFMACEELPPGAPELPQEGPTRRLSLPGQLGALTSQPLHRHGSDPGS

Row | SMILES | IC50 [1] [nM] | Ki [2] [nM] | Ki [3] [nM] | Ki [4] [nM] | Exposure (% rPPB) [6] [%] | IC50 [5] [nM] | suppression of circulating LH levels [7]
1 | Cc1nsc(-c2nnc3n2CCN(C(=O)c2ccc(Cl)c(F)c2)C3)n1 [Compound 3, (4-chloro-3-fluorophenyl)(3-(3-methyl-1,2,4-thiadiazol-5-yl)-5,6-dihydro-[1,2,4]triazol[4,3-a]pyrazin-7(8H)-yl)methanone] | 140 | 93 | > 30000 | > 30000 | 54 |  | 
2 | Cc1nsc(-c2nnc3n2CCN(C(=O)c2ccc(F)c(F)c2F)C3)n1 [Compound 7, (3-(3-methyl-1,2,4-thiadiazol-5-yl)-5,6-dihydro-[1,2,4]triazolo[4,3-a]pyrazin-7(8H)-yl)(2,3,4-trifluorophenyl)methanone] | 470 | 240 | > 30000 | > 30000 | 25 |  | 
3 | Cc1nsc(-c2nnc3n2CCN(C(=O)c2ccc(F)c(F)c2)C3)n1 [Compound 5, (3,4-difluorophenyl)(3-(3-methyl-1,2,4-thiadiazol-5-yl)-5,6-dihydro-[1,2,4]triazol[4,3-a]pyrazin-7(8H)-yl)methanone] | 250 | 170 | > 30000 | > 30000 | 28 |  | 
4 | Cc1nsc(-c2nnc3n2CCN(C(=O)c2cc(F)c(F)c(F)c2)C3)n1 [Compound 6, (3-(3-methyl-1,2,4-thiadiazol-5-yl)-5,6-dihydro-[1,2,4]triazolo[4,3-a]pyrazin-7(8H)-yl)(3,4,5-trifluorophenyl)methanone] | 330 | 170 | > 30000 | > 30000 | 27 |  | 
5 | Cc1nsc(-c2nnc3n2CCN(C(=O)c2ccc(F)c(Cl)c2)C3)n1 [Compound 4, (3-chloro-4-fluorophenyl)(3-(3-methyl-1,2,4-thiadiazol-5-yl)-5,6-dihydro-[1,2,4]triazol[4,3-a]pyrazin-7(8H)-yl)methanone] | 200 | 130 | > 30000 | > 30000 | 52 |  | 

The next lines start with results.

Row | IC50 [1] [nM] | Ki [2] [nM] | Ki [3] [nM] | Ki [4] [nM] | Exposure (% rPPB) [6] [%] | SMILES | IC50 [5] [nM] | suppression of circulating LH levels [7]
6 | 140 | 99 | > 30000 | > 30000 | 49 | Cc1nsc(-c2nnc3n2CCN(C(=O)c2ccc(Cl)cc2)C3)n1 [Compound 2, (4-chlorophenyl)(3-(3-methyl-1,2,4-thiadiazol-5-yl)-5,6-dihydro-[1,2,4]triazol[4,3-a]pyrazin-7(8H)-yl)methanone] | 35000 | 
7 | 180 | 140 | > 30000 | > 30000 |  | Cc1nsc(-c2nnc3n2CCN(C(=O)c2ccc(F)cc2)C3)n1 [Compound 1, (4-fluorophenyl)(3-(3-methyl-1,2,4-thiadiazol-5-yl)-5,6-dihydro-[1,2,4]triazolo[4,3-a]pyrazin-7(8H)-yl)methanone] |  | significantly suppressed circulating LH levels
